Reference: US8367727B2, “Method of using abscisic acid to treat diseases and disorders” (priority 2006, dated 2013)
Marks after values point to notes of the source that are not given here.

Columns and labels:
Format in all cases: in vivo
db/db mice [1] = test: Fasting blood glucose in db/db mice fed high-fat diets for 36 days; conditions: day 36
Method: Four week-old, male BKS.Cg-+Lepr^db/+Lepr^db/OlaHsd (db/db) mice were purchased from Harlan Laboratories (Indianapolis, Ind.) and maintained at the animal facilities at Virginia Polytechnic Institute and State University in a room maintained at 75° F., with a 12:12 h light-dark cycle starting from 6:00 AM. All experimental procedures were approved by the Institutional Animal Care and Use Committee of Virginia Polytechnic Institute and State University and met or exceeded requirements of the Public Health Service/National Institutes of Health and the Animal Welfare Act.
Experiment 1: mice (n=25) were fed high-fat (>40% energy from fat), isocaloric, isonitrogenous diets containing 0, 100, 200, 400, and 800 mg of a racemic (±) ABA mixture/kg diet for 36 days (Table 1) (Sigma). These doses were chosen based on the standard concentrations of TZDs utilized in the treatment of NIDDM. The mice were weighed and their food intake was recorded daily. On day 36 of the study fasted mice (12 h) were bled through the caudal vein and fasting blood glucose concentrations were determined. To investigate the ability of ABA to normalize glucose concentrations, an intraperitoneal glucose tolerance test (IPGTT) was performed on day 36 on the fasted mice. Briefly, mice were bled at 0, 10, 25, and 45 minutes following the administration of glucose (2 g/kg) for measurement of plasma glucose levels. […] Weights were recorded for WAT, interscapular brown adipose tissue (BAT), and liver.
Experiment 2: The ABA dose utilized (100 mg ABA/kg) was based on the results obtained from the IPGTT of the ABA titration study (i.e., Experiment 1). Mice in experiment 2 were fed high-fat diets containing 0 or 100 mg ABA/kg for 36 days. Their body weights and food intake was recorded daily, and blood was collected on day 36 of the study during an IPGTT. This IPGTT included one additional 100 minutes time point. […] Weights were recorded for abdominal WAT, BAT, and liver.
Experiment 1 was a dose-titration study, where we fed 4-week old db/db mice (n=25) diabetogenic, high fat diets containing either 0, 100, 200, 400, or 800 mg racemic ABA mixture/kg diet. […] These in vivo results are in agreement with the transfection findings showing no difference in PPAR γ transactivation between 10 and 50 μM ABA.

[2] = tested on: dextran sodium sulfate (DSS)-induced colitis; test: DSS-induced colitis in C57BL/6J mice: disease activity, macroscopic scores, histopathology
Method: Six to eight week old C57BL/6J mice (n=20) and were housed at the animal facilities at Virginia Polytechnic Institute and State University in a room maintained at 75° F., with a 12:12 h light-dark cycle starting from 6:00 AM. All experimental procedures were approved by the Institutional Animal Care and Use Committee of Virginia Polytechnic Institute and State University and met or exceeded requirements of the Public Health Service/National Institutes of Health and the Animal Welfare Act. C57BL/6J mice were fed AIN-93G-based diets with or without 100 mg/kg of a racemic ABA mixture for 35 days prior to induction of colitis with water containing 2.5% dextran sodium sulfate (DSS), […] (ICN Biomedicals, Aurora, Ohio). After the DSS challenge mice were weighed on a daily basis and examined for clinical signs of disease associated with colitis (i.e., perianal soiling, rectal bleeding, diarrhea, and piloerection). For the DSS challenge, the disease activity indices and rectal bleeding scores were calculated using a modification of a previously published compounded clinical score (50). Briefly, the disease activity index consisted of a scoring for diarrhea and lethargy (0-3), whereas rectal bleeding consisted of a visual observation of blood in feces and the perianal area (0-4). Mice in the DSS study were euthanized on day 7 of the DSS challenge. On day 7 blood mice were euthanized by CO2 asphyxiation and blood was withdrawn from the heart. Spleen and mesenteric lymph nodes (MLN) were scored based on size and macroscopic inflammatory lesions (0-3), excised, and then crushed to produce single-cell suspensions for flow cytometry.
Colonic sections were fixed in 10% buffered neutral formalin, later embedded in paraffin, and then sectioned (5 μm) and stained with H&E stain for histologic examination. Colons were graded with a compounded histologic score including the extent of (1) lymphocyte infiltration, (2) mucosal thickening, and (3) epithelial cell erosion. The sections were graded with a score of 0-4 for each of the previous categories and data were analyzed as a normalized compounded score.

[3] = tested on: adipose tissue macrophages (ATM); test: Flow cytometry of adipose tissue macrophage subsets in stromal-vascular fraction of WAT, db/db mice
db/db mice [4] = test: WAT and skeletal muscle (SM) inflammation in db/db mice (Example 8)
Method: WAT Digestion. […] The floating portion (adipocyte-rich portion), was then removed and digested for an addition 60 minutes at 37° C.
Quantitative real-time reverse transcriptase PCR.
Complementary DNA (cDNA) concentrations for genes of interest were examined by real-time quantitative PCR using an iCycler IQ System and the iQ SYBR green supermix (BioRad). A standard curve was generated for each gene using 10-fold dilutions of purified amplicons starting at 5 pg of cDNA and used later to calculate the starting amount of target cDNA in the unknowns.

Q: Which results are given for `CC1=CC(=O)CC(C)(C)C1(O)/C=C/C(C)=C\C(=O)O` (racemic) [ABA, abscisic acid]?
A: fasting blood glucose (FBG) concentrations versus control diet (db/db mice [1]; 100 to 800 mg ABA/kg diet): significantly lower; Fasting glucose (db/db mice [1]; Experiment 1, 100 mg ABA/kg diet): 219.6^b mg/dL; Fasting glucose (db/db mice [1]; Experiment 1, 200 mg ABA/kg diet): 210.2^b mg/dL; Fasting glucose (db/db mice [1]; Experiment 1, 400 mg ABA/kg diet): 185.6^a mg/dL; Fasting glucose (db/db mice [1]; Experiment 1, 800 mg ABA/kg diet): 202.0^b mg/dL; Fasting glucose (db/db mice [1]; Experiment 2, 100 mg ABA/kg diet): 190.7^b mg/dL; disease activity index (DAI) ([2]; 100 mg/kg diet 35 days, then 7 days 2.5% DSS): significantly reduced disease activity index; body weight loss ([2]; DSS challenge, ABA vs control): no significant differences in body weight loss; Epithelial erosion ([2]; colon histology, DSS colitis): significantly reduced; leukocyte infiltration ([2]; colon histology, DSS colitis): significantly reduced; mucosal thickening ([2]; colon histology, DSS colitis): significantly reduced; colonic inflammation, macroscopic score ([2]; day 7 of DSS): significantly reduced colonic inflammation; spleen or MLN macroscopic score ([2]; day 7 of DSS): no significant effect on the spleen or MLN; F4/80hi CD11b+CCR2+ ATM subset ([3]; P=0.006): reduction; F4/80lo ATM ([3]; db/db mice): no effect; F4/80hi macrophage infiltration into WAT ([3]; db/db mice, P=0.05): significantly suppressed; amount of F4/80 on surface of F4/80hi macrophages (MFI) ([3]; vs control diet): significantly lower; MCP-1 expression in SM (db/db mice [4]; ABA-fed mice): significantly downregulated; MCP-1 expression in stromal vascular cells (SVCs) (db/db mice [4]; ABA-fed mice): significantly downregulated; TNF-α expression in SM, control-fed db/db versus ABA-fed db/db mice (db/db mice [4]; P=0.03): approximately 2 fold; IMAT adipocyte hypertrophy (db/db mice [4]; db/db mice, 100 mg ABA/kg diet, 36 days): significantly attenuated; CCR2 and CCR5 macrophage infiltration into WAT (db/db mice [4]; dietary ABA-supplementation, 36 days): significantly decreased
